Assay results reported in publication PMC4467398, “Preclinical antitumor activity of ST7612AA1: a new oral thiol-based histone deacetylase (HDAC) inhibitor” (Oncotarget, 2014).

System: DOHH2 and TMD8 DLBCL cells
Assay: Gene expression profiling (HumanHT-12 v4 BeadChip, limma), ST7612AA1 300 nM 8 hrs vs DMSO
Type: cell-based, human
Conditions: 300 nM 8 hrs vs DMSO

CC(=O)SCCCCC[C@H](NC(=O)[C@H]1CCC(=O)N1)C(=O)Nc1ccccc1 [ST7612AA1]
log ratio ESAM (probe ILMN_1668092): 7.54E-01
log ratio EVI2A (ILMN_1733579): -1.21E+00
log ratio EXOSC8 (ILMN_1756162): -8.59E-01
log ratio EXTL2 (ILMN_2388425): 6.00E-01
log ratio F11R (probe ILMN_2342033): 8.81E-01
log ratio FAIM (ILMN_1690101): -1.08E+00
log ratio FAIM (ILMN_2351548): -9.70E-01
log ratio FAM49A (ILMN_1794038): 6.23E-01
log ratio FAM65A (probe ILMN_1680037): 7.70E-01
log ratio FAM108A2 (ILMN_3178529): 6.40E-01
log ratio FAM110A (ILMN_2323944): 6.14E-01
log ratio FAM116B (probe ILMN_1659029): 7.74E-01
log ratio FAM120B (probe ILMN_1679641): 7.62E-01
log ratio FAM136A (ILMN_1655307): -1.26E+00
log ratio FAM136B (ILMN_3241756): -7.94E-01
log ratio FAM149B1 (probe ILMN_3245452): 7.21E-01
log ratio FAM160B1 (ILMN_3231638): -6.11E-01
log ratio FAM164A (ILMN_1789558): 6.20E-01
log ratio FAM167A (probe ILMN_3248511): 7.13E-01
log ratio FBXO15 (ILMN_1755281): 6.57E-01
log ratio FBXO18 (probe ILMN_1729430): 7.97E-01
log ratio FCGRT (probe ILMN_1705302): 6.92E-01
log ratio FCHSD2 (ILMN_1815734): -6.17E-01
log ratio FERMT3 (ILMN_2366330): -1.23E+00
log ratio FGD2 (probe ILMN_2115005): 7.14E-01
log ratio FGF9 (probe ILMN_1762531): 7.84E-01
log ratio FHL1 (probe ILMN_1805842): 7.76E-01
log ratio FKBP11 (ILMN_1787345): -9.71E-01
log ratio FLJ22795 (probe ILMN_2150802): 8.56E-01
log ratio FNBP1 (ILMN_1797342): 6.67E-01
log ratio FOXC1 (probe ILMN_1738401): 8.63E-01
log ratio FOXO1 (probe ILMN_1738816): 8.61E-01
log ratio FOXO4 (probe ILMN_1712095): 6.93E-01
log ratio FSD1 (probe ILMN_1813490): 7.25E-01
log ratio FUCA1 (probe ILMN_1752728): 8.57E-01
log ratio FVT1 (ILMN_2154052): 6.36E-01
log ratio FXYD5 (ILMN_2309848): 6.27E-01
log ratio G6PD (probe ILMN_1697559): 6.93E-01
log ratio GABARAPL2 (probe ILMN_1796458): 7.62E-01
log ratio GAMT (probe ILMN_1756469): 8.74E-01
log ratio GAPT (ILMN_1675191): -1.10E+00
log ratio GAPT (ILMN_3242271): -1.08E+00
log ratio GAR1 (ILMN_2412549): -9.54E-01
log ratio GAR1 (ILMN_3263329): -9.36E-01
log ratio GATM (probe ILMN_1729180): 7.75E-01
log ratio GATS (ILMN_1699631): 6.00E-01
log ratio GBE1 (ILMN_1789702): -8.91E-01
log ratio GCDH (ILMN_2296843): 6.56E-01
log ratio GCH1 (probe ILMN_1812759): 7.11E-01
log ratio GINS3 (ILMN_1754272): -8.17E-01
log ratio GM2A (ILMN_2221046): 5.90E-01
log ratio GMEB2 (ILMN_1683204): -5.99E-01
log ratio GNG11 (ILMN_1782419): 6.02E-01
log ratio GOLGB1 (probe ILMN_1747935): 7.13E-01
log ratio GPATCH4 (ILMN_2383305): -1.16E+00
log ratio GPATCH4 (ILMN_2383306): -1.12E+00
log ratio GPER (ILMN_1795298): -1.70E+00
log ratio GPER (ILMN_2384056): -1.82E+00
log ratio GPT2 (probe ILMN_1684158): 8.12E-01
log ratio GPX4 (ILMN_1734353): 6.05E-01
log ratio GPX7 (ILMN_1726030): -1.08E+00
log ratio GRB2 (ILMN_1748797): 6.01E-01
log ratio GRN (probe ILMN_1724250): 8.24E-01
log ratio GRWD1 (ILMN_1742166): -6.02E-01
log ratio GSDMB (ILMN_2347193): 6.61E-01
log ratio GSTO1 (ILMN_2227573): -6.01E-01
log ratio GTF2B (ILMN_1737857): 6.21E-01
log ratio GTF2I (ILMN_1673917): -1.01E+00
log ratio GTF2IRD2B (ILMN_1680501): -1.15E+00
log ratio GTF3C2 (ILMN_1746457): -7.85E-01
log ratio GTF3C6 (ILMN_1691578): -1.19E+00
log ratio GTPBP6 (ILMN_1776080): -8.00E-01
log ratio HABP4 (ILMN_1792384): 5.90E-01
log ratio HABP4 (probe ILMN_2107991): 7.82E-01
log ratio HAGH (probe ILMN_1772731): 8.84E-01
log ratio HCFC1 (ILMN_1732705): -1.50E+00
log ratio HDDC2 (ILMN_1753745): -8.45E-01
log ratio HDGF (ILMN_1765621): -8.47E-01
log ratio HERC1 (probe ILMN_1786211): 7.40E-01
log ratio HERC6 (ILMN_1654639): -6.08E-01
log ratio HERPUD1 (probe ILMN_2374159): 8.50E-01
log ratio HEY1 (probe ILMN_1788203): 8.91E-01
log ratio HEY2 (probe ILMN_1682034): 7.56E-01
log ratio HIST1H1C (probe ILMN_1757406): 8.24E-01
log ratio HIST2H2AA3 (probe ILMN_2144426): 8.03E-01
log ratio HK2 (ILMN_1723486): -1.09E+00
log ratio HLA-DOA (ILMN_1659075): 6.55E-01
log ratio HLA-DPA1 (probe ILMN_1772218): 8.12E-01
log ratio HLA-DQA1 (probe ILMN_1808405): 8.25E-01
log ratio HLA-DRB4 (probe ILMN_1752592): 7.27E-01
log ratio HLA-DRB6 (ILMN_2066066): 5.94E-01
log ratio HLA-E (probe ILMN_1765258): 8.07E-01
log ratio HLTF (ILMN_1798588): 6.54E-01
log ratio HLTF (probe ILMN_1673820): 7.48E-01
log ratio HNRNPR (ILMN_3177285): -5.97E-01
log ratio HNRPH3 (ILMN_1654920): -7.98E-01
log ratio HNRPLL (ILMN_1791575): 6.20E-01
log ratio HOOK2 (probe ILMN_1682147): 7.36E-01
log ratio HPSE (ILMN_1779547): 5.94E-01
log ratio HSD17B8 (ILMN_1715324): 6.72E-01
log ratio HSPA1B (probe ILMN_1660436): 7.16E-01
log ratio HSPC111 (ILMN_1704055): -1.16E+00
log ratio ID1 (probe ILMN_1664861): 7.75E-01
log ratio IFFO1 (probe ILMN_2348268): 8.07E-01
log ratio IFI16 (ILMN_1710937): -9.06E-01
log ratio IFI35 (ILMN_1745374): -8.00E-01
log ratio IFRD2 (ILMN_1742031): -7.99E-01
log ratio IGSF3 (probe ILMN_1704353): 8.50E-01
log ratio INTS10 (ILMN_1679483): -8.21E-01
log ratio IRAK1 (ILMN_2379130): -1.37E+00
log ratio IRAK2 (ILMN_1745964): 6.17E-01
log ratio ISG20L1 (ILMN_1814282): -8.55E-01
log ratio ISOC2 (ILMN_1769158): -9.83E-01
log ratio ITFG2 (ILMN_1701244): -8.71E-01
log ratio ITFG3 (ILMN_1810055): 6.64E-01
log ratio ITGA4 (ILMN_1747052): -6.00E-01
log ratio ITGB1 (ILMN_1723467): 6.32E-01
log ratio ITGB1 (ILMN_2383934): 6.80E-01
log ratio ITGB1 (probe ILMN_1714820): 7.06E-01
log ratio ITPKA (probe ILMN_1776516): 7.10E-01
log ratio JAK1 (probe ILMN_1793384): 7.91E-01
log ratio KAT2A (ILMN_1782247): -6.02E-01
log ratio KBTBD2 (ILMN_1784540): -6.12E-01
log ratio KEAP1 (ILMN_2410771): -8.88E-01
log ratio KEAP1 (ILMN_2410772): -9.23E-01
log ratio KIAA0020 (ILMN_1665483): -7.91E-01
log ratio KIAA0368 (ILMN_1847822): -1.24E+00
log ratio KIAA1602 (ILMN_1763640): 6.30E-01
log ratio KIF3B (ILMN_1702279): 6.21E-01
log ratio KIFC2 (ILMN_1803018): 6.72E-01
log ratio KLF9 (ILMN_1778523): 6.77E-01
log ratio KLHDC5 (ILMN_1727134): -1.09E+00
log ratio KLHL5 (probe ILMN_1706687): 8.05E-01
log ratio KLRAQ1 (probe ILMN_3271092): 7.11E-01
log ratio KPNB1 (ILMN_1703949): -1.01E+00
log ratio L3MBTL2 (ILMN_3307786): -8.52E-01
log ratio LAMC1 (ILMN_1810852): 6.63E-01
log ratio LANCL2 (ILMN_1708009): -8.15E-01
log ratio LARP1B (ILMN_1733390): -7.84E-01
log ratio LASS2 (ILMN_1726108): -7.85E-01
log ratio LASS2 (ILMN_2400500): -9.26E-01
log ratio LCMT1 (probe ILMN_1688452): 7.21E-01
log ratio LCMT1 (probe ILMN_2336186): 7.52E-01
log ratio LIN9 (ILMN_2137084): -6.10E-01
log ratio LMNA (probe ILMN_1737394): 7.98E-01
log ratio LOC151162 (probe ILMN_3238058): 7.72E-01
log ratio LOC205251 (ILMN_1693685): -6.17E-01
log ratio LOC253039 (probe ILMN_3236498): 8.10E-01
log ratio LOC283683 (probe ILMN_1659327): 8.30E-01
log ratio LOC285176 (ILMN_1694327): -5.99E-01
